# Measured values taken from patent US12318393B2, “Modulators of orphan nuclear receptors for NASH and other metabolic disorders” (Emory University, priority 2018, dated 2025).
# Legend:
# miR-122 = test: Expression of RORα-regulated microRNA in Huh-7 cells (qRT-PCR); type: cell-based, human; details: 1 μM, 24 hours
# Protocol: Secreted microRNA levels in the medium of Huh-7 cells were analyzed by qRT-PCR and were normalized to spiked C. elegans miR-39. miR-18 and miR-93 served as controls for secreted microRNA and were not affected following Compound 1 addition.
# RNA extraction and quantitative Real-Time PCR analysis. Total RNA, including small RNAs, were isolated from 200 μL of plasma or culture media samples using the miRNeasy Mini kit (Qiagen, Valencia, CA, USA) with 2 minor modifications. First, 200 μl of plasma or culture media were lysed with 1 ml of Qiazol solution. Second, a 50 pmol/l of synthesized single strand Caenorhabditis elegans miRNA (cel-miR-39) was added as the spike-in control to monitor extraction efficiency. The remainder of the RNA extraction was performed according to the manufacturer's instructions. miRNAs were eluted with 30 μl of RNase-free water. […] The fold expression and statistical significance were calculated using the 2-ΔΔ Ct method. […]
# miR-122 and Gpase6 = test: Modulation of RORα-regulated genes in healthy C57BL/6 mice; type: in vivo; details: 7.5 mg/kg i.p. once
# Protocol: Healthy C57BL/6 mice were injected i.p. once with 7.5 mg/kg Compound 1 or saline control. Mice were sacrificed at 1, 2, and 7 day time points post-injection. miR-122 and Gpase 6 mRNA levels were determined by qRT-PCR for each time point. MicroRNA levels were normalized to RNU6; plasma miR-122 was normalized to spiked in C. elegans miR-39; and mRNA levels were normalized to HPRT.
# RNA extraction and quantitative Real-Time PCR analysis. Total RNA, including small RNAs, were isolated from 200 μL of plasma or culture media samples using the miRNeasy Mini kit (Qiagen, Valencia, CA, USA) with 2 minor modifications. First, 200 μl of plasma or culture media were lysed with 1 ml of Qiazol solution. Second, a 50 pmol/l of synthesized single strand Caenorhabditis elegans miRNA (cel-miR-39) was added as the spike-in control to monitor extraction efficiency. The remainder of the RNA extraction was performed according to the manufacturer's instructions. miRNAs were eluted with 30 μl of RNase-free water. Total RNA, including miRNAs, from cells or tissues were isolated using TRIzol reagent (Invitrogen, Carlsbad, CA, USA). cDNA was synthesized using the Quanta Biosciences qScript™ cDNA Synthesis Kit (95047-100) for mRNA analysis, and using the qScript™ microRNA cDNA Synthesis Kit (95107-100) for miRNAs analysis. qRT-PCR of miRNAs and mRNA was performed using the ABI 7900 HT Real-Time PCR System and a SYBR Green PCR Kit: Quanta Cat. #84018 and #84071 respectively. The fold expression and statistical significance were calculated using the 2-ΔΔ Ct method. All experiments were performed in triplicates.
# [1] = tested on: high-fat-fed C57BL/6 mice; test: High-fat-diet C57BL/6 mice, Compound 1 7.5 mg/kg with antagomiR-control or antagomiR-122; type: in vivo
# Protocol: C57BL/6 mice were fed a 50% high fat diet (HFD) for four weeks. The control cohort received three hydrodynamic tail vein injections of a 5 μg antagomiR-control and six i.p injections of saline over three weeks. A second cohort was hydrodynamic tail vein injected with 5 μg antagomiR-122 (the reverse complement that inhibits activity of miR-122) three times and i.p injections of saline six times over three weeks. A third cohort was injected i.p. with Compound 1 (7.5 mg/kg) twice a week plus antagomiR-control once a week over the course of 3 weeks. The final cohort was injected i.p. with Compound 1 (7.5 mg/kg) twice a week plus antagomiR-122 injections once a week over the course of 3 weeks.
# High Fat diet fed mice. C57BL/6 male mice were fed for 8 weeks a 50% high fat diet (Envigo, DIETTD150235). All mice were kept in a pathogen-free facility, under a 12 h light/dark cycle. Research on mice was approved by the Hebrew University Institutional Animal Care and Ethics Committee.
# Compound 1 and AntagomiR injections to mice. C57BL/6 male mice, 7-8 weeks old, or Sgp130FC, 9-month-old male mice, were injected i.p. with 7.5 mg/kg Compound 1 dissolved in saline and 3% DMSO. Saline was injected as control. Mice were hydrodynamic tail vain injected with antagomiR-122 or antagomiR-control (negative control) (5 μg/mouse in 1.5 ml saline). Mice were sacrificed according to the legend of the figure describing the experimental results and the livers, white adipose and skeletal muscle tissues were frozen in liquid nitrogen or in OCT embedded frozen blocks, for further RNA and histologic analysis. AntagomiRs were obtained from Sigma Aldrich, see Table 3.
# Triglycerides and β-hydroxybutyrate quantification. To determine the liver and muscle lipid content, muscle and liver tissues (40-80 mg) were homogenized in 0.5 ml of chloroform: Tris solution (v/v, 1:1), the homogenate was transferred to 1 ml of chloroform: methanol solution (v/v, 2:1) centrifuged at 3000 rpm for 10 min. The organic phase was mixed with 5% Triton X100 in chloroform, dried and re-dissolved in water. After lipid extraction, TG concentration in samples was measured with Triglyceride Quantification Kit (BioVision), according to the manufactures instructions. β-hydroxybutyrate was determined utilizing commercial colorimetric kits (BioVision) directly from plasma samples.
# In an effort to determine whether the mechanism of action of miR-122 and Compound 1 are aligned at the same pathway, an experiment was designed in which both molecules, together and each separately, were administered. In this study, mice were fed with a 50% HFD and therapy was initiated 4 weeks after the animals were already on a diet, to establish NASH prior to treatment. Therapies (antagomiRs given once a week, due to a prolonged half time, and RS twice weekly, due to a plasma t/2 of 2.7 hrs) were initiated after 4 weeks and given for 3 weeks. The mice were weighed from week 3 and therapies initiated a week later. […] The liver was further analyzed to assess lipotoxicity. […] A surrogate marker for energy expenditure, β-hydroxybutyrate, was also measured. A reduction in energy expenditure is associated with reduced miR-122, and energy expenditure increased upon treating with Compound 1.
# Male C57BL/6J mice, 7 to 8 weeks old, were housed randomly in standard cages and were fed a HFD, or atherogenic diet (consisting 1% Chol and 0.5% cholic acid, see also Table 3). All mice had free access to water during the experimental period. During the feeding period body weight was monitored every 3 days. In the HFD experiment, after 4 or 6 weeks, the resultant obese mice were treated with antagomiR-122 ([…] once a week for 3 weeks), or i.p. injected with Compound 1 (RORα agonist, 7.5 mg/kg twice a week for 3 weeks; or 15 mg/kg 3 times a week for 3 weeks). The obese control (HFD) group was administered only saline with DMSO and antagomiR-control. […]
smiles,measurement,setting,value
O=C1Nc2cc(C(=O)N3CCC(Cc4ccccc4)CC3)ccc2Nc2ccccc21 [Compound 1],secreted miR-18 and miR-93 levels in medium (control microRNAs),miR-122,not affected
same,secretion of miR-122 (relative microRNA levels in Huh7 medium),miR-122; vs DMSO,specifically increases
same,miR-18 and miR-126 levels (controls),miR-122 and Gpase6; over 7 days,not affected
same,Gpase6 mRNA (RORα-regulated gene),miR-122 and Gpase6; up to 7 days post-injection,significantly up-regulated
same,miR-122 levels in plasma and liver,miR-122 and Gpase6; up to 7 days post-injection,increased
same,"body weight, co-administration with antagomir-122","[1]; 7.5 mg/kg i.p. twice a week plus antagomiR-122 once a week, 3 weeks",did not decrease
same,body weight at the end of the experiment compared to the control group,"[1]; 7.5 mg/kg i.p. twice a week plus antagomiR-control, 3 weeks",statistically lower
same,secretion of miR-122 (plasma),"[1]; 7.5 mg/kg i.p. twice a week, 3 weeks",enhanced
same,TG content in the muscle,"[1]; 50% HFD, treatment for 3 weeks",decreased
same,energy expenditure (surrogate marker β-hydroxybutyrate),"[1]; 50% HFD, treatment for 3 weeks",increased
same,hepatic lipid droplets and TG content,"[1]; 50% HFD, treatment for 3 weeks",reduced
